The text below walks through data of patent US8507538B2, “Selective heterocyclic sphingosine 1 phosphate receptor modulators” (Receptos, Inc., priority 2009, dated 2013).

For this assay, the target named is S1P1/EDG1 (Homo sapiens, UniProt P21453). In words: S1P1 CRE-bla CHOK1 reporter assay (inhibition of Forskolin induced cAMP). In kind it is cell-based. The conditions noted are these: agonist activity range, Table 2; read-out: S1P1 ACTIVITY
The essentials:
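Stable CRE-bla CHO-K1 clone expressing human S1P1, serum-starved (0.5% stripped serum) 18 h, then treated with compound (10-point curve) plus 2 μM forskolin for 4 h at 37 °C. β-lactamase FRET ratio (458/522 nm) read after 2 h substrate loading; EC50 for inhibition of forskolin-induced cAMP by non-linear regression.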

Chain of S1P1/EDG1 (P21453 whole entry): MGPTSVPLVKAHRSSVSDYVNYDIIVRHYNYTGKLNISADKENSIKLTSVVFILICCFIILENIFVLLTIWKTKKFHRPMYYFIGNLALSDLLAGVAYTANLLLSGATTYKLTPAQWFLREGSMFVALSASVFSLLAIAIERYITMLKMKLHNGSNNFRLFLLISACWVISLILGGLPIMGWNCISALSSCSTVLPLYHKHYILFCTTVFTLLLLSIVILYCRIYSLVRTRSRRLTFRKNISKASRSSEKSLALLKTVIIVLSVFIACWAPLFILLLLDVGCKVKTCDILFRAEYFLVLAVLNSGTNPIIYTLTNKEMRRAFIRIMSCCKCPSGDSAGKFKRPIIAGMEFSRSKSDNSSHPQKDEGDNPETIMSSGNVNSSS

On to `CC(C)Oc1ccc(-c2ncc(-c3cccc4c3CC[C@@H]4NS(=O)(=O)CCO)s2)cc1C#N` [Compound 165, (S)-N-(4-(2-(3-cyano-4-isopropoxyphenyl)thiazol-5-yl)-2,3-dihydro-1H-inden-1-yl)-2-hydroxyethanesulfonamide], for which the EC50 lay in the range of 0.5 to 5 nM.

On to `CC(C)Oc1ccc(-c2ncc(-c3cccc4c3CC[C@@H]4NS(=O)(=O)CCC(=O)O)s2)cc1C#N` [Compound 160], for which the EC50 is < 0.05 nM.

Consider `CC(C)Oc1ccc(-c2ncc(-c3cccc4c3CC[C@@H]4NC(=O)N3CC[C@H](O)C3)s2)cc1C#N` [Compound 175], for which the EC50 was in the range of 0.5 to 5 nM.

`CC(C)Oc1ccc(-c2ncc(-c3cccc4c3CCC4NCC(=O)O)s2)cc1C#N` (stereo in doubt) [Compound 96, (R)-2-((4-(2-(3-cyano-4-isopropoxyphenyl)thiazol-5-yl)-2,3-dihydro-1H-inden-1-yl)amino)acetic acid]: the EC50 is 0.05 to 0.5 nM.

For the compound `CC(C)Oc1ccc(-c2nnc(-c3cccc4c3CC[C@@H]4NC(=O)N3CCCC3)s2)cc1C#N` [Compound 53], the EC50 was 0.5 to 5 nM.

Take `CC(C)Oc1ccc(-c2ncc(-c3cccc4c3CCC4NC3CCCCC3)s2)cc1C#N` (stereo not drawn) [Compound 218]: the EC50 is > 5 nM.

`CC(C)Oc1ccc(-c2ncc(-c3cccc4c3CC[C@@H]4NC(=O)N3CCC(CC(=O)O)CC3)s2)cc1C#N` [Compound 200]: the EC50 fell in the range of 0.05 to 0.5 nM.

In the case of `CC(C)Oc1ccc(-c2nnc(-c3cccc4c3CC[C@H]4NC(=O)CO)s2)cc1C#N` [Compound 8, (R)-N-(4-(5-(3-cyano-4-isopropoxyphenyl)-1,3,4-thiadiazol-2-yl)-2,3-dihydro-1H-inden-1-yl)-2-hydroxyacetamide], the EC50 lay within 0.05 to 0.5 nM.

With `CC(C)Oc1ccc(-c2ncc(-c3cccc4c3CC[C@@H]4NC(=O)N3CC[C@H](N)C3)s2)cc1C#N` [Compound 180], the EC50 is > 5 nM.

Turning to `COC(=O)CS(=O)(=O)NC1CCc2c(-c3cnc(-c4ccc(OC(C)C)c(C#N)c4)s3)cccc21` (stereo in doubt) [Compound 154, (R)-methyl 2-(N-(4-(2-(3-cyano-4-isopropoxyphenyl)thiazol-5-yl)-2,3-dihydro-1H-inden-1-yl)sulfamoyl)acetate], the EC50 lay in the range of 0.05 to 0.5 nM.

Consider `CC(C)Oc1ccc(-c2ncc(-c3cccc4c3CCC4N3CC[C@H](O)C3)s2)cc1C#N` (stereo partly drawn) [Compound 210], for which the EC50 was in the range of 0.5 to 5 nM.

`CC(C)Oc1ccc(-c2ncc(-c3cccc4c3CC[C@@H]4NC(=O)N3CC[C@@H](N)C3)s2)cc1C#N` [Compound 181]: the EC50 was > 5 nM.

Turning to `CC(C)Oc1ccc(-c2ncc(-c3cccc4c3CC[C@@H]4NS(=O)(=O)CC(=O)O)s2)cc1C#N` [Compound 159, (S)-2-(N-(4-(2-(3-cyano-4-isopropoxyphenyl)thiazol-5-yl)-2,3-dihydro-1H-inden-1-yl)sulfamoyl)acetic acid], the EC50 fell in the range of 0.05 to 0.5 nM.

For the compound `CC(C)Oc1ccc(-c2nnc(-c3cccc4c3CC[C@@H]4NC(=O)N3CC[C@H](O)C3)s2)cc1C#N` [Compound 54], the EC50 lay in the range of 0.05 to 0.5 nM.

For the compound `CC(C)Oc1ccc(-c2ncc(-c3cccc4c3CC[C@@H]4NS(=O)(=O)CCN3CC(O)C3)s2)cc1C#N` [Compound 150], the EC50 was 0.5 to 5 nM.

Take `CC(C)Oc1ccc(-c2ncc(-c3cccc4c3CC[C@@H]4NS(=O)(=O)CCN3CCCCC3)s2)cc1C#N` [Compound 139]: the EC50 is > 5 nM.

For the compound `CC(=O)N[C@@H]1CCc2c(-c3nnc(-c4ccc(OC(C)C)c(C#N)c4)s3)cccc21` [Compound 15, (R)-N-(4-(5-(3-cyano-4-isopropoxyphenyl)-1,3,4-thiadiazol-2-yl)-2,3-dihydro-1H-inden-1-yl)acetamide], the EC50 was 0.05 to 0.5 nM.

`COCC(=O)N[C@@H]1CCc2c(-c3nnc(-c4ccc(OC(C)C)c(C#N)c4)s3)cccc21` [Compound 11]: the EC50 fell in the range of 0.05 to 0.5 nM.

`CC(C)Oc1ccc(-c2ncc(-c3cccc4c3CC[C@@H]4NS(=O)(=O)C3CC3)s2)cc1C#N` [Compound 117]: the EC50 was in the range of 0.05 to 0.5 nM.

As for `CC(C)Oc1ccc(-c2ncc(-c3cccc4c3CC[C@@H]4NC(=O)N3CCC(CO)CC3)s2)cc1C#N` [Compound 194], the EC50 fell in the range of 0.5 to 5 nM.

Take `CC(C)Oc1ccc(-c2ncc(-c3cccc4c3CC[C@@H]4NC(=O)N3CCN(C)CC3)s2)cc1C#N` [Compound 190]: the EC50 lay within 0.5 to 5 nM.

Consider `CC(=O)N[C@H]1CCc2c(-c3cnc(-c4ccc(OC(C)C)c(C#N)c4)s3)cccc21` [Compound 87], for which the EC50 is 0.05 to 0.5 nM.

As to `COCCS(=O)(=O)N[C@H]1CCc2c(-c3cnc(-c4ccc(OC(C)C)c(C#N)c4)s3)cccc21` [Compound 115], the EC50 was 0.05 to 0.5 nM.

In the case of `CC(C)Oc1ccc(-c2nnc(-c3cccc4c3CC[C@@H]4NC(=O)N3CCC(O)CC3)s2)cc1C#N` [Compound 62], the EC50 was in the range of 0.5 to 5 nM.

As to `CC(C)Oc1ccc(-c2ncc(-c3cccc4c3CC[C@@H]4NC(=O)N3CC[C@@H](N(C)C)C3)s2)cc1C#N` [Compound 185], the EC50 was > 5 nM.

Regarding `CC(C)Oc1ccc(-c2ncc(-c3cccc4c3CC[C@@H]4NS(=O)(=O)CCN(C)C)s2)cc1C#N` [Compound 123], the EC50 lay in the range of 0.5 to 5 nM.

`CC(C)Oc1ccc(-c2ncc(-c3cccc4c3CCC4N3CC[C@@H](N)C3)s2)cc1C#N` (stereo partly drawn) [Compound 212]: the EC50 was > 5 nM.

Consider `CC(C)Oc1ccc(-c2ncc(-c3cccc4c3CCC4N3CCNCC3)s2)cc1C#N` (stereo not drawn) [Compound 215], for which the EC50 was 0.5 to 5 nM.

Take `CC(C)Oc1ccc(-c2nnc(-c3cccc4c3CCC4O)s2)cc1C#N` (stereo in doubt) [Compound 2, (R)-5-(5-(1-hydroxy-2,3-dihydro-1H-inden-4-yl) -1,3,4-thiadiazol-2-yl)-2-isopropoxybenzonitrile]: the EC50 fell in the range of 0.05 to 0.5 nM.

As for `CC(C)Oc1ccc(-c2ncc(-c3cccc4c3CC[C@@H]4NCC(=O)N3CC[C@H](O)C3)s2)cc1C#N` [Compound 104, 5-(5-((S)-1-((2-((S)-3-hydroxypyrrolidin-1-yl)-2-oxoethyl)amino)-2,3-dihydro-1H-inden-4-yl)thiazol-2-yl)-2-isopropoxybenzonitrile], the EC50 lay in the range of 0.5 to 5 nM.

Consider `CC(C)Oc1ccc(-c2ncc(-c3cccc4c3CC[C@@H]4NC(=O)N3CCN(C)CC3)s2)cc1C#N` [Compound 191], for which the EC50 was > 5 nM.

As to `CC(C)Oc1ccc(-c2ncc(-c3cccc4c3CC[C@@H]4NS(=O)(=O)CC(=O)N3CC(O)C3)s2)cc1C#N` [Compound 163], the EC50 lay in the range of 0.05 to 0.5 nM.

In the case of `COC(=O)CC1CCN(C(=O)N[C@H]2CCc3c(-c4cnc(-c5ccc(OC(C)C)c(C#N)c5)s4)cccc32)CC1` [Compound 204], the EC50 fell in the range of 0.5 to 5 nM.

As to `CC(C)Oc1ccc(-c2nnc(-c3cccc4c3CC[C@@H]4NS(=O)(=O)CCN3CCC(O)C3)s2)cc1C#N` (stereo in doubt) [Compound 37, N-((S)-4-(5-(3-cyano-4-isopropoxyphenyl)-1,3,4-thiadiazol-2-yl)-2,3-dihydro-1H-inden-1-yl)-2-((R)-3-hydroxypyrrolidin-1-yl)ethanesulfonamide], the EC50 was 0.5 to 5 nM.

In the case of `COCC(=O)N[C@H]1CCc2c(-c3nnc(-c4ccc(OC(C)C)c(C#N)c4)s3)cccc21` [Compound 12], the EC50 fell in the range of 0.5 to 5 nM.

In the case of `CC(C)Oc1ccc(-c2nnc(-c3cccc4c3CC[C@@H]4NCC(=O)N3CCOCC3)s2)cc1C#N` [Compound 24], the EC50 lay in the range of 0.5 to 5 nM.
